Tested on: Jurkat FADD (−/−) Cells
Assay: TNF-α induced necroptosis of Jurkat FADD-deficient cells (CellTiter-Glo cell survival)
Format: cell-based, human
Conditions: Homo sapiens; TNF-α induced necroptosis, Jurkat FADD-deficient cells, 13 hours, CellTiter-Glo; read-out: IC50
How it was run: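 Cells in RPMI 1640 with 10% FBS were pretreated for 1 h at 37 °C with compound (12-point threefold series from 25 μM, or 0.5 μM, in triplicate). They were then stimulated with TNFα added as a 5 ng/mL solution for 13 h. Survival was read by luminescence.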

SMILES	IC50 [nM]
CN1C(=O)C(NC(=O)c2nnc(Cc3ccccc3)[nH]2)Cc2cn(-c3cncn3C)c3cccc1c23 (racemic) [T-74, (±)-5-benzyl-N-(1-methyl-6-(1-methyl-1H-imidazol-5-yl)-2-oxo-2,3,4,6-tetrahydro-1H-azacyclo [4,3,2-cd]indol-3-yl)-4H-1,2,4-triazole-3-carboxamide]	< 10
CNS(=O)(=O)c1cccnc1-n1cc2c3c(cccc31)N(C)C(=O)C(NC(=O)c1nnc(Cc3ccccc3)[nH]1)C2 (racemic) [T-75, (±)-5-benzyl-N-(1-methyl-6-(3-(N-methylsulfamoyl)pyridin-2-yl)-2-oxo-2,3,4,6-tetrahydro-1H-azacyclo [4,3,2-cd]indol-3-yl)-4H-1,2,4-triazole-3-carboxamide]	10 to 100
CN1C(=O)C(NC(=O)c2nnc(Cc3ccccc3)[nH]2)Cn2cc(C#N)c3cccc1c32 (racemic) [T-76, (±)-5-benzyl-N-(7-cyano-1-methyl-2-oxo-1,2,3,4-tetrahydro-[1,4]diazepino [3,2,1-hi]indol-3-yl)-4H-1,2,4-triazole-3-carboxamide]	10 to 100
CN1C(=O)C(NC(=O)c2nnc(Cc3ccccc3)[nH]2)Cn2cc(-c3ccnc(C(F)(F)F)c3)c3cccc1c32 (racemic) [T-77, (±)-5-benzyl-N-(1-methyl-2-oxo-7-(2-(trifluoromethyl)pyridin-4-yl)-1,2,3,4-tetrahydro-[1,4]diazepino [3,2,1-hi]indol-3-yl)-4H-1,2,4-triazole-3-carboxamide]	100 to 1000
CN1C(=O)C(NC(=O)c2nnc(Cc3ccccc3)[nH]2)Cn2cc(Br)c3ccc(Br)c1c32 (racemic) [T-79, (±)-5-benzyl-N-(7,10-dibromo-1-methyl-2-oxo-1,2,3,4-tetrahydro-[1,4]diazepino [3,2,1-hi]indol-3-yl)-4H-1,2,4-triazole-3-carboxamide]	> 1000
COCc1cccc(-c2cn3c4c(cccc24)N(C)C(=O)C(NC(=O)c2nnc(Cc4ccccc4)[nH]2)C3)c1 (racemic) [T-80, (±)-5-benzyl-N-(7-(3-(methoxymethyl)phenyl)-1-methyl-2-oxo-1,2,3,4-tetrahydro-[1,4]diazepino [3,2,1-hi]indol-3-yl)-4H-1,2,4-triazole-3-carboxamide]	10 to 100
CN1C(=O)C(NC(=O)c2ncc(Cc3ccccc3)o2)Cn2cc(-c3ccnn3C)c3cccc1c32 (racemic) [T-83, (±)-5-benzyl-N-(1-methyl-7-(1-methyl-1H-pyrazol-5-yl)-2-oxo-1,2,3,4-tetrahydro-[1,4]diazepino[3,2,1-hi]indol-3-yl)-oxazole-2-carboxamide]	< 10
CN1C(=O)C(NC(=O)c2nnc(Cc3ccccc3)[nH]2)Cn2cc(-c3ccccc3C(F)(F)F)c3cccc1c32 (racemic) [T-84, (±)-5-benzyl-N-(1-methyl-2-oxo-7-(2-(trifluoromethyl)phenyl)-1,2,3,4-tetrahydro-[1,4]diazepino [3,2,1-hi]indol-3-yl)-4H-1,2,4-triazole-3-carboxamide]	10 to 100
COc1cccc(OC)c1-c1cn2c3c(cccc13)N(C)C(=O)C(NC(=O)c1nnc(Cc3ccccc3)[nH]1)C2 (racemic) [T-85, (±)-5-benzyl-N-(7-(2,6-dimethoxyphenyl)-1-methyl-2-oxo-1,2,3,4-tetrahydro-[1,4]diazepino [3,2,1-hi]indol-3-yl)-4H-1,2,4-triazole-3-carboxamide]	100 to 1000
COc1ccccc1-c1cn2c3c(cccc13)N(C)C(=O)C(NC(=O)c1nnc(Cc3ccccc3)[nH]1)C2 (racemic) [T-87, (±)-5-benzyl-N-(7-(2-methoxyphenyl)-1-methyl-2-oxo-1,2,3,4-tetrahydro-[1,4]diazepine [3,2,1-hi]indol-3-yl)-4H-1,2,4-triazole-3-carboxamide]	10 to 100
CN1C(=O)C(NC(=O)c2nnc(Cc3ccccc3)[nH]2)Cn2cc(-c3cnoc3)c3cccc1c32 (racemic) [T-88, (±)-5-benzyl-N-(7-(isoxazol-4-yl)-1-methyl-2-oxo-1,2,3,4-tetrahydro-[1,4]diazepine [3,2,1-hi]indol-3-yl)-4H-1,2,4-triazole-3-carboxamide]	10 to 100
CN1C(=O)C(N2CCc3c(nn(Cc4ccccc4)c3Cl)C2=O)Cn2cc(-c3ccnn3C)c3cccc1c32 (racemic) [T-89, (±)-3-(2-benzyl-3-chloro-7-oxo-2,4,5,7-tetrahydro-6H-pyrazole [3,4-c]pyridin-6-yl)-1-methyl-7-(1-methyl-1H-pyrazol-5-yl)-3,4-dihydro-[1,4]diazepine[3,2,1-hi]indole-2(1H)-one]	10 to 100
CC(C)n1nccc1-c1cn2c3c(cccc13)N(C)C(=O)C(NC(=O)c1nnc(Cc3ccccc3)[nH]1)C2 (racemic) [T-90, (±)-5-benzyl-N-(7-(1-isopropyl-1H-pyrazol-5-yl)-1-methyl-2-oxo-1,2,3,4-tetrahydro-1,4-diazepine [3,2,1-hi]indol-3-yl)-4H-1,2,4-triazole-3-carboxamide]	< 10
Cc1ccsc1-c1cn2c3c(cccc13)N(C)C(=O)C(NC(=O)c1nnc(Cc3ccccc3)[nH]1)C2 (racemic) [T-91, (±)-5-benzyl-N-(1-methyl-7-(3-methylthiophen-2-yl)-2-oxo-1,2,3,4-tetrahydro-[1,4]diazepine [3,2,1-hi]indol-3-yl)-4H-1,2,4-triazole-3-carboxamide]	10 to 100
CN1C(=O)C(NC(=O)c2nnc(Cc3ccccc3)[nH]2)Cc2cn(-c3ncccc3CC(F)(F)F)c3cccc1c23 (racemic) [T-97, (±)-5-benzyl-N-(1-methyl-2-oxo-6-(3-(2,2,2-trifluoroethyl)pyridin-2-yl)-2,3,4,6-tetrahydro-1H-azacyclo [4,3,2-cd]indol-3-yl)-4H-1,2,4-triazole-3-carboxamide]	< 10
CN1C(=O)C(NC(=O)c2nnc(Cc3ccccc3)[nH]2)Cc2cn(-c3nccc4ccccc34)c3cccc1c23 (racemic) [T-99, (±)-5-benzyl-N-(6-(isoquinolin-1-yl)-1-methyl-2-oxo-2,3,4,6-tetrahydro-1H-aza [4,3,2-cd]indol-3-yl)-4H-1,2,4-triazole-3-carboxamide]	< 10
COC(=O)c1cc(-n2cc3c4c(cccc42)N(C)C(=O)C(NC(=O)c2nnc(Cc4ccccc4)[nH]2)C3)cn1C (racemic) [T-100, (±)-methyl4-(3-(5-benzyl-4H-1,2,4-triazole-3-carboxamide)-1-methyl-2-oxo-1,2,3,4-tetrahydro-6H-azacyclo [4,3,2-cd]indol-6-yl)-1-methyl-1H-pyrrole-2-carboxylate]	10 to 100
CN1C(=O)C(NC(=O)c2nnc(Cc3ccccc3)[nH]2)Cc2cn(-c3cccnc3)c3cccc1c23 (racemic) [T-101, (±)-5-benzyl-N-(1-methyl-2-oxo-6-(pyridin-3-yl)-2,3,4,6-tetrahydro-1H-azacyclo [4,3,2-cd]indol-3-yl)-4H-1,2,4-triazole-3-carboxamide]	10 to 100
CN1C(=O)C(NC(=O)c2nnc(Cc3ccccc3)[nH]2)Cc2cn(-c3ccncc3)c3cccc1c23 (racemic) [T-102, (±)-5-benzyl-N-(1-methyl-2-oxo-6-(pyridin-4-yl)-2,3,4,6-tetrahydro-1H-azacyclo [4,3,2-cd]indol-3-yl)-4H-1,2,4-triazole-3-carboxamide]	10 to 100
CCOC(=O)c1cccnc1-n1cc2c3c(cccc31)N(C)C(=O)C(NC(=O)c1nnc(Cc3ccccc3)[nH]1)C2 (racemic) [T-103]	10 to 100
CC(C)OC(=O)c1cccnc1-n1cc2c3c(cccc31)N(C)C(=O)C(NC(=O)c1nnc(Cc3ccccc3)[nH]1)C2 (racemic) [T-104, (±)-2-(3-(5-benzyl-4H-1,2,4-triazole-3-carboxamide)-1-methyl-2-oxo-1,2,3,4-tetrahydro-6H-azacyclo [4,3,2-cd]indol-6-yl)isopropyl Nicotinate]	10 to 100
CN1C(=O)C(NC(=O)c2nnc(Cc3ccccc3)[nH]2)Cc2cn(-c3ncccc3OC(F)(F)F)c3cccc1c23 (racemic) [T-105, (±)-5-benzyl-N-(1-methyl-2-oxo-6-(3-(trifluoromethoxy)pyridin-2-yl)-2,3,4,6-tetrahydro-1H-azacyclo [4,3,2-cd]indol-3-yl)-4H-1,2,4-triazole-3-carboxamide]	< 10
CN1C(=O)C(NC(=O)c2nnc(Cc3ccccc3)[nH]2)Cc2cn(-c3cccnn3)c3cccc1c23 (racemic) [T-106, (±)-5-benzyl-N-(1-methyl-2-oxo-6-(pyridazin-3-yl)-2,3,4,6-tetrahydro-1H-aza [4,3,2-cd]indol-3-yl)-4H-1,2,4-triazole-3-carboxamide]	100 to 1000
CN1C(=O)C(NC(=O)c2nnc(Cc3ccccc3)[nH]2)Cc2cn(-c3ncccc3OC(F)F)c3cccc1c23 (racemic) [T-107, (±)-5-benzyl-N-(6-(3-(difluoromethoxy)pyridin-2-yl)-1-methyl-2-oxy-2,3,4,6-tetrahydro-1H-azacyclo [4,3,2-cd]indol-3-yl)-4H-1,2,4-triazole-3-carboxamide]	< 10
CCS(=O)(=O)c1cccnc1-n1cc2c3c(cccc31)N(C)C(=O)C(NC(=O)c1nnc(Cc3ccccc3)[nH]1)C2 (racemic) [T-108, (±)-5-benzyl-N-(6-(3-(ethylsulfonyl)pyridin-2-yl)-1-methyl-2-oxo-2,3,4,6-tetrahydro-1H-aza [4,3,2-cd]indol-3-yl)-4H-1,2,4-triazole-3-carboxamide]	10 to 100
CN1C(=O)C(NC(=O)c2nnc(Cc3ccccc3)[nH]2)Cc2cn(-c3ncccc3S(=O)(=O)C3CC3)c3cccc1c23 (racemic) [T-109, (±)-5-benzyl-N-(6-(3-(cyclopropylsulfonyl)pyridin-2-yl)-1-methyl-2-oxo-2,3,4,6-tetrahydro-1H-azacyclo [4,3,2-cd]indol-3-yl)-4H-1,2,4-triazole-3-carboxamide]	< 10
CN1C(=O)C(NC(=O)c2nnc(Cc3ccccc3)[nH]2)Cc2cn(-c3ncccc3P(C)(C)=O)c3cccc1c23 (racemic) [T-110, (±)-5-benzyl-N-(6-(3-(dimethylphosphoryl)pyridin-2-yl)-1-methyl-2-oxo-2,3,4,6-tetrahydro-1H-aza [4,3,2-cd]indol-3-yl)-4H-1,2,4-triazole-3-carboxamide]	> 1000

Source: patent publication US20250049812A1, “Compounds that Inhibit Necroptosis and Their Preparation Methods” (SHANGHAI INSTITUTE OF ORGANIC CHEMISTRY, CHINESE ACADEMY OF …, priority 2021, published 2025)
